Results: patent publication US8859291B2, “Methods for target molecule detection using siderophores and related compositions” (PerkinElmer LAS, Inc., priority 2004, dated 2014)

Test system: deferoxamine-gallium (III) cation capture agent
Assay: AlphaScreen proximity assay: binding of biotinylated target molecules to deferoxamine-gallium (III) cation acceptor beads
Method: To prepare desferrioxamine complexed with gallium (III) cation and desferrioxamine complexed with iron (III), as a capture agents attached to a plastic bead support, desferrioxamine was first attached to plastic beads as follows: 5 mg of deferoxamine, 250 ul of raw AlphaScreen™ acceptor beads (at 20 mg/ml), 6 ul of TWEEN™ 20 detergent (at 10% in water), 50 ul of sodium cyanoborohydride (at 25 mg/ml in water) and 695 ul of MES 0.1 M, pH 6.0 were mixed. The mixture was incubated overnight at 37° C. in an agitating water bath. The following morning, 50 ul of carboxymethoxylamine (at 65 mg/ml in water, pH 5) was added, and the mixture was incubated for 1 hour at 37° C. The beads were then centrifuged (30 minutes at 13,000 rpm), washed twice with TRIS buffer (0.1 M, pH 8.0).
To form a complex of desferrioxamine with transition metal cations, the beads were resuspended in HEPES buffer (25 mM, pH 7.4) containing 100 mM gallium (III) or iron (III) chloride. After 1 hour of incubation, the beads were centrifuged, washed twice with HEPES buffer (25 mM pH 7.4) and resuspended in HEPES buffer. Sonication optionally can be used to eliminate aggregates of beads. […]
The ability of deferoxamine-gallium (III) cation capture agents to bind to target molecules was confirmed using AlphaScreen™ assays. […] Alternatively, competition or cleavage assays can be read as signal reduction. […]

concentration at which maximal signal was not yet reached: > 1 µM
concentration at which detection starts (HEPES buffer, streptavidin donor beads, triplicate): around 300 pM
Substance: biotin-phosphoinositide-3,4,5-trisphosphate [biotin-PIP3]
